Test system: Rtkn-GFP
Experiment: ToxTracker genotoxicity assay, Rtkn-GFP reporter induction

Compound `CC1CN1CC(C)(C)OC(=O)NCCCCCCn1c(=O)n(CCCCCCNC(=O)OC(C)(C)CN2CC2C)c(=O)n(CCCCCCNC(=O)OC(C)(C)CN2CC2C)c1=O` (stereo not drawn) [Ex. 1] has a Rtkn induction level (with S9 rat liver extract, 3 h exposure and 24 h recovery, at 10% cytotoxicity) of 1.0 fold, a Rtkn induction level (with S9 rat liver extract, 3 h exposure and 24 h recovery, at 25% cytotoxicity) of 1.1 fold and a Rtkn induction level (with S9 rat liver extract, 3 h exposure and 24 h recovery, at 50% cytotoxicity) of 1.3 fold. It also gave a Rtkn induction level (without S9 rat liver extract, 24 h exposure, at 10% cytotoxicity) of 1.1 fold, a Rtkn induction level (without S9 rat liver extract, 24 h exposure, at 25% cytotoxicity) of 1.1 fold and a Rtkn induction level (without S9 rat liver extract, 24 h exposure, at 50% cytotoxicity) of 1.3 fold.

From patent US12247008B2, “Multi-aziridine compound” (COVESTRO (NETHERLANDS) B.V., priority 2020, dated 2025)
